Results published in patent US20220395500A1, “SMALL MOLECULE ACTIVATORS OF INTERFERON REGULATORY FACTOR 3 AND METHODS OF USE THEREOF” (Neuralexo, Inc., priority 2020, published 2022).
Read-outs that look alike come from different tables or passages of the source.

Key:
[1] = test system: NF-κB-SEAP reporter in THP1-Dual cells; assay: THP1-Dual NF-κB-SEAP reporter counterscreen; format: cell-based, human; settings: Homo sapiens, THP1-Dual, read-out: THP1 NFkB EC50
Method: THP1 Dual (InvivoGen) cell suspensions were cultured in RPMI 1640 (Hyclone, Logan, Utah) supplemented with 10% fetal bovine serum (Hyclone), 100 U/mL Normocin (Invivogen), and 50 U/mL PenStrep (Gibco, Dublin, Ireland) between a density of 7·10^5-2·10^6 cells/mL. Every other passage, media was supplemented with 5 U/mL Blasticidin and 100 U/mL Zeocin to maintain the expression constructs. White, flat-bottom 384-well plates (Greiner, Kremsmunster, Austria, 781080) were seeded with 2.5·10^4 cells/well in a total of 50 μL media containing 5 ng/mL phorbolmyristic acid (PMA) using a Matrix WellMate (Thermo Scientific) dispenser. After 48 hours of incubation at 37° C., media was removed using a BioTek ELx405 CW plate washer set to aspirate and wash each well three times with 65 μL 1×PBS. Plates were reloaded with 50 μL media without PMA and treatments added. Lipopolysaccharide in dimethylsulfoxide (DMSO) was transferred to control wells using a HP D300 microdispenser to a final concentration of 313 ng/mL. Compounds from chemical library plates were copied using a Sciclone (Caliper LifeSciences) mounted with a 384-pin transfer tool to obtain a final concentration of 10 μM. After incubation with treatments for 24 hours, 10 μL of supernatant media from each well was transferred into a white, flat-bottom 384-well plate for luminescence readout and a black-walled, clear flat-bottom 384-well plate for absorbance readout.
Specifically, to enable screening of novel chemical entities (NCEs) in a larger screening effort, a robust high-throughput cell-based assay system for primary hit identification of ISRE activators based on the above-mentioned target validation was desired. Human ISRE activity was verified using a THP-1 monocyte line containing the NF-κB-SEAP and IRF-Lucia luciferase dual reporter (THP1-Dual; Invivogen) that features two reporter genes, SEAP (secreted embryonic alkaline phosphatase) and Lucia luciferase, thereby enabling the simultaneous study of the NF-κB and IRF signalling pathways. The Lucia luciferase reporter is under the control of an ISG54 (interferon-stimulated gene) minimal promoter in conjunction with five IFN-stimulated response elements. The SEAP gene is driven by an IFN-β minimal promoter fused to five copies of the NF-κB consensus transcriptional response element and three copies of the c-Rel binding site. Both reporter proteins are readily measurable in the cell culture supernatant when using QUANTI-LUC™ and QUANTI-Blue SEAP detection reagents.
Using the experimental design and data analysis outlined above, optimized assay conditions were obtained. The responsiveness of the human THP-1 Dual cell line was evaluated in an array of assay conditions to obtain sensitive and reproducible results for the activation of IRF and NF-κB reporters. An optimal plating density and differentiation protocol for these cells was established in a 384-well format. All transfer steps are fully automated using high throughput robotic equipment. Briefly, cells are seeded in differentiation medium using a Matrix WellMate fitted with the WellMate Stacker (Thermo Scientific) and incubated at 37° C. with 5% CO2 for 48 h. Following differentiation, cells are washed using a BioTek ELx405 Select CW plate washer and growth medium added with the Matrix WellMate. Programmed control treatments are added to wells using a D300 digital dispenser fitted with T8+ dispense heads (Hewlett Packard) designed to dispense nanoliter quantities of material. Compounds from library plates are added using a pin tool fitted to a Sciclone ALH 3000 Workstation (Caliper Life Sciences) programmed with Maestro v4.4. After treatment, plates are returned to incubators for 24 hours. To measure reporter expression, supernatant is collected using the Sciclone and dispensed into 2 plates: 1) a white 384-well assay plate for Lucia luminescence measurements and 2) a clear-bottom black 384-well assay plate for SEAP absorbance measurements. […]

[2] = THP1-Dual cytotoxicity (Cell Titer Glo, ATP); format: cell-based, human; settings: human, THP1-Dual cells, read-out: Thp1 cytotox CC50
Method in brief: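 CC50, the concentration killing half the cells, was derived from ATP-dependent CellTiter-Glo luminescence. Cells were THP1-Dual (human) and compound was tested as an 8-point dose-response series, with viability read in the same plate.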

[3] = J774-Dual cytotoxicity; format: cell-based, mouse; settings: mouse, J774-Dual cells, read-out: J774 cytotox CC50
Method in brief: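 CC50 derived from 8-point concentration series in mouse J774-Dual reporter cells, with viability read by CellTiter-Glo in the same plate. Run in parallel with EC50 and ISRE:NFκB ratio determination for cross-species confirmation.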

[4] = Human Reporter Cell Line, 8-point dose response

| Compound | EC50 [1, 4] | CC50 ([2]; Human Reporter Cell Line) | CC50 ([3]; Mouse Reporter Cell Line) | EC50 ([1]; Human Reporter Cell Line THP1) | CC50 ([2]; Human Reporter Cell Line THP1) | CC50 ([3]; Mouse Reporter Cell Line J774) |
| --- | --- | --- | --- | --- | --- | --- |
| O=C(Nc1ccc(N2CCN(C(=O)c3ccsc3)CC2)cc1)c1ccc(OCc2ccccc2)nc1 [NA-1] | 2.07 µM | 10.5 µM | 13.7 µM |  |  |  |
| O=C(Nc1ccc(N2CCN(C(=O)c3cccs3)CC2)cc1)c1ccc(OCc2cccc(Cl)c2)cc1 [NA-33] | 1.62 µM | 9.58 µM | 25.5 µM |  |  |  |
| O=C(Nc1ccc(N2CCN(C(=O)c3cccs3)CC2)cc1)c1ccc(Cl)c2ccccc12 [NA13] | 1.22 µM | > 25 µM | > 25 µM |  |  |  |
| O=C(Nc1ccc(N2CCN(C(=O)c3cccs3)CC2)cc1)c1ccc(-c2ccccc2)cn1 [NA-39] | 7.91 µM | > 25 µM | > 25 µM |  |  |  |
| Cc1ccc(NC(=O)c2cc(NC(=O)c3cccs3)ccc2N2CCOCC2)cc1 [NB-17] |  |  |  | ~3.14 µM | > 25 µM | > 25 µM |
| COCOc1ccc2oc(-c3ccc(C)c(NC(=O)c4ccc(OC)c([N+](=O)[O-])c4)c3)nc2c1 [ND-95, 4-methoxy-N-(5-(5-(methoxymethoxy)benzo[d]oxazol-2-yl)-2-methylphenyl)-3-nitrobenzamide] |  |  |  | 1.27 µM | 26.7 µM | > 25 µM |
| COc1ccc(C(=O)Nc2ccc(OCc3ccccc3)cc2)cc1[N+](=O)[O-] [NA-44] | 0.92 µM | 50.3 µM | > 25 µM |  |  |  |
| CCOc1ccc(C(=O)Nc2ccc(N3CCN(C(=O)c4cccs4)CC3)cc2)cc1Br [NA-30] | 1.05 µM | 18.8 µM | 40.7 µM |  |  |  |
| Cc1ccc(NC(=O)c2cc(NC(=O)c3cccs3)ccc2N2CCOCC2)cc1Br [NB-23] |  |  |  | 4.59 µM | 30.5 µM | 36.9 µM |
| Cc1ccc(NC(=O)c2cc(NC(=O)c3cccs3)ccc2N2CCOCC2)cc1Cl [NB-8] |  |  |  | 13.9 µM | > 25 µM | > 25 µM |
| COc1ccc(C(=O)Nc2cccc(-c3nc4ncccc4o3)c2)cc1Br [ND-47] |  |  |  | 2.1 µM | > 25 µM | > 25 µM |
| O=C(Nc1ccc(N2CCN(C(=O)c3cccs3)CC2)cc1)c1ccc(-c2ccncc2)cc1 [NA-38] | 3.46 µM | > 25 µM | > 25 µM |  |  |  |
| COc1ccc(-c2nc3cc(C(C)C)ccc3o2)cc1NC(=O)c1ccc(C)c([N+](=O)[O-])c1 [ND-16] |  |  |  | 3.25 µM | 32.7 µM | > 25 µM |
| CCOc1cccc(COc2ccc(C(=O)Nc3ccc(N4CCN(C(=O)c5cccs5)CC4)cc3)cc2)c1 [NA42, 4-((3-ethoxybenzyl)oxy)-N-(4-(4-(thiophene-2-carbonyl)piperazin-1-yl)phenyl)benzamide] | 3.04 µM | 121 µM | 37.2 µM |  |  |  |
| Cc1ccc(NC(=O)c2cc(NC(=O)c3ccccc3)ccc2N2CCOCC2)cc1Cl [NB-1] |  |  |  | 2.54 µM | 32.8 µM | > 111 µM |
| Cc1ccc(COc2ccc(C(=O)Nc3ccc(N4CCN(C(=O)c5cccs5)CC4)cc3)cc2)cc1 [NA-25] | 5 µM | 35.5 µM | > 25 µM |  |  |  |
| Cc1ccc(-c2nc3ccccc3s2)cc1NC(=O)c1cccc(Cl)c1 [ND-80] |  |  |  | ~6.55 µM | 33.9 µM | > 25 µM |
| COc1ccc(C(=O)Nc2cc(-c3nc4cc(C)c(C)cc4o3)ccc2C)cc1[N+](=O)[O-] [ND13, N-(5-(5,6-dimethylbenzo[d]oxazol-2-yl)-2-methylphenyl)-4-methoxy-3-nitrobenzamide] |  |  |  | 0.556 µM | 8.76 µM | 4.32 µM |
| Cc1c(Br)ccc(C(=O)Nc2ccc(N3CCN(C(=O)c4cccs4)CC3)cc2)c1C [NA-16] | ~5.23 µM | > 25 µM | > 25 µM |  |  |  |
